From patent US20120214846A1, “HEXAHYDROCYCLOPENTYL[F]INDAZOLE PYRIDYL ETHANOLS AND DERIVATIVES THEREOF AS SELECTIVE GLUCOCORTICOID RECEPTOR MODULATORS” (MERCK SHARP & DOHME CORP, priority 2009, published 2012)
In brackets after ≈: the same amount, converted by molar mass. Where two headings read alike, the source gives them in different places.

Experiments:
[1] = Solubility at pH 2; type: physicochemical
[2] = system: female Sprague-Dawley rats, oxazolone (OX) contact dermatitis; assay: In Vivo Inflammation Assay (oxazolone contact dermatitis model); design: key to Inflammation Assay Glucose Effect / GL *: +: the glucose level increased compared to vehicle; −: the glucose level decreased compared to vehicle; conditions: for GL *: glucose effect; for Inflammation Assay Glucose Effect / Inflammation Assay Anti-inflammatory Effect: rat; for Inflammation Assay Glucose Effect: glucose level compared to vehicle; for Inflammation Assay Anti-inflammatory Effect: relative to control compound
Method: In Vivo Inflammation Assay
Intact adult (6 month old) female Sprague-Dawley rats are used in the oxazolone (OX) contactdermatitis model. Rats were sensitized on the ventral abdomen with OX on Day 0. On Days 7 and 9, a randomly-selected ear was challenged (same ear each time) with OX; the other was treated with vehicle. Daily treatment begun on Day 7 and continued for 7d with test compounds at different doses and 1.3 mpk 6-methlyprednisolone or 0.1 mpk DEX as positive controls. The thickness of both ears are measured on Days 11 and 14. Necropsy occurred on Day 14. The rat is first weighed, then anesthetized in a CO2 chamber until near death. Approximately 5 ml whole blood is obtained by cardiac puncture. The rat is then examined for certain signs of death and completeness. Tissues are dissected in a highly stylized fashion. Then the following endpoints were evaluated: a) inhibiting ear inflammation induced by oxazalone, b) raising serum insulin, c) reducing serum ACTH, d) reducing spleen weight, e) reducing skin thickness, f) reducing body weight, g) increasing expression of bone-related genes with potential relationship to negative glucocorticoid effects on bone; e) changes in molecular markers that correlate with skin inflammation, skin thinning, muscle atrophy and glucose metabolism in liver. All blood samples were collected between 1330-1530 hours, ˜4-5 hrs after the last compound treatment.
Primary data for this assay are left and right ear thickness. Inter-ear thickness difference (etd) is used for the estimating the level of inflammation and effectiveness of the compounds is determined by their ability to reduce the increase the thickness of the inflamed ear. Back of the rat skin thickness, spleen weight, serum insulin as well as the effects of gcs on the expression of molecular markers in skin inflammation, skin atrophy, muscle atrophy and glucose metabolism in liver are measured. Data are analyzed by anova plus fisher plsd post-hoc test to identify intergroup differences.

[3] = biological target: T1, GR (Homo sapiens, UniProt P04150); assay: Transrepression Assay (GITAR), TNFα-β-lactamase reporter, U937 cells; type: cell-based; design: U937 cells contain an endogenous glucocorticoid receptor (GR); endogenous in cells; host or cells: U937 cells stably transfected with the TNF-alpha promoter beta-lactamase reporter
T1 sequence (P04150 1-777): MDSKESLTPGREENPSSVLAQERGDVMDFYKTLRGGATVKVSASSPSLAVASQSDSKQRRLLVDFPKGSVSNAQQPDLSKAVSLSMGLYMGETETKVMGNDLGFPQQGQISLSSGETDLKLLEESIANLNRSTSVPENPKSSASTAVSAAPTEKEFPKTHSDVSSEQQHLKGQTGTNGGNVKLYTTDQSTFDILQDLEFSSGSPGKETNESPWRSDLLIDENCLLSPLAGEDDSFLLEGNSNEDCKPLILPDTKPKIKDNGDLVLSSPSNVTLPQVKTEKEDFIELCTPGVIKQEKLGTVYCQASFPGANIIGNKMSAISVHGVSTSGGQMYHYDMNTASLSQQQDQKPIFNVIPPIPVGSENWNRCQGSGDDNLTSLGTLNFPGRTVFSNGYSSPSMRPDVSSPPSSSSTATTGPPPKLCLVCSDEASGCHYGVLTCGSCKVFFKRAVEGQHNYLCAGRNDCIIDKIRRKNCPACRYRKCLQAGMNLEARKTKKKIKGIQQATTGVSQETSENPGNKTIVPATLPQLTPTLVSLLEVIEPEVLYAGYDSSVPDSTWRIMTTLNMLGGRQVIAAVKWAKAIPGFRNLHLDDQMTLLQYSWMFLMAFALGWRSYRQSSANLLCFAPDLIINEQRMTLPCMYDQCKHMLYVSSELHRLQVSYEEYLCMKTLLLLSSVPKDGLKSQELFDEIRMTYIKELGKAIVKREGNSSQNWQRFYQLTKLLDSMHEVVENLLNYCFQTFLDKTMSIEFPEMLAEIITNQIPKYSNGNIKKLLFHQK
From the text: This assay assesses the ability of test compounds to control transcription from the TNFα-β-lactamase reporter gene in U937 cells, a human myelomonocytic leukemia cell line that naturally expresses the human GR. The assay measures compound dependent-repression of the TNFa promoter linked to a reporter gene.
The human U937 cells that had been stablely transfected with the TNF-α promoter driving […] are used for this assay. U937 cells contain an endogenous glucocorticoid receptor (GR). […] 50,000 cells/well are plated in 96 well black-walled plates the day of assay. Test compounds are added 10 μL/well, and cells are incubated at 37° C. for 30˜45 min. For assaying compounds, first dilute 1:10 in DMSO to make 1 mM, then further dilute 1:100 in medium to make 10× stock prior to adding to the cells. Add 50 ng/ml PMA (Sigma, cat#P8139) 10 μL/well to a final concentration 5 ng/ml, and 1 μg/ml LPS (Sigma, cat#L4130) 10 μL/well to a final concentration 100 ng/ml. Incubate cells at 37° C. overnight for ˜18 hr. PMA is stored frozen as 100 μg/ml stock in DMSO. Dilute 1:10 in DMSO for a working stock of […] and store at −20 C. For assaying, dilute the 10 μg/ml working stock 1:200 in medium to make a 10× solution (50 ng/ml). Store frozen LPS at 1 mg/ml in PBS, dilute 1:1000 in medium to make 10× (1 μg/ml) for the assay. Add 6× loading buffer (CCF2-AM) 20 μL/well, and incubate at room temperature for 70˜90 min. […] The activity repressed by 100 nM dexamethasone alone is set as 100% activity.

[4] = Table 4, literature compounds, read-out: GITAR IP
[5] = U-937, Table 4, literature compounds, read-out: GITAR EMAX
[6] = pH 2, read-out: Solubility At pH 2
[7] = U937 cells, activity repressed by 100 nM dexamethasone set as 100%
[8] = U937 cells, inflection point, read-out: Transrepression U937 Cells GITAR IP
[9] = U-937, U937 cells, activity repressed by 100 nM dexamethasone set as 100%, read-out: Transrepression U937 Cells GITAR Emax
[10] = pH 2, aqueous buffer, pH 2, read-out: Solubility At pH 2

## C[C@]12Cc3cnn(-c4ccc(F)cc4)c3C=C1CCC[C@@H]2[C@@H](O)c1ccccc1 [Ex. 35 WO 03/86294 A2, reference compound]
[1]; Table 4, literature compounds
  solubility: poor
[2]; Table 4, literature compounds
  GL *: −
[3]; [4]
  EC50: 200 nM
[3]; [5]
  Emax: 78.8%

## C[C@]12Cc3cnn(-c4ccc(F)cc4)c3C=C1CC[C@@]2(O)CC(O)c1cc(C(F)(F)F)ccn1 (single isomer, unassigned) [Example 5b]
[1]; [6]
  solubility: 3 µM (≈ 1.42 µg/mL)
[3]; [7]
  Transrepression U937 Cells GITAR Emax: 75.6%
[3]; [8]
  EC50: 145 nM

## C[C@]12Cc3cnn(-c4ccc(F)cc4)c3C=C1CC[C@@]2(O)CC(O)c1cc(Br)ccn1 (single isomer, unassigned) [Example 10a]
[1]; [6]
  solubility: 7 µM (≈ 3.39 µg/mL)
[3]; [7]
  Transrepression U937 Cells GITAR Emax: 97.5%
[3]; [8]
  EC50: 230 nM

## C[C@]12Cc3cnn(-c4ccc(F)cc4)c3C=C1CC[C@@]2(O)CC(O)c1cc(C(F)(F)F)ccn1 (single isomer, unassigned) [Example 5a]
[1]; [6]
  solubility: 18 µM (≈ 8.52 µg/mL)
[3]; [8]
  EC50: 67.5 nM
[3]; [9]
  Emax: 89.1%

## C[C@]12Cc3cnn(-c4ccc(F)cc4)c3C=C1CCC[C@@H]2[C@@H](O)Cc1ccccc1 [Ex. 22 WO 03/086294 A2, reference compound]
[1]; Table 4, literature compounds
  solubility: poor
[2]; Table 4, literature compounds
  GL *: −
[3]; [4]
  EC50: 242 nM
[3]; [5]
  Emax: 76.8%

## C[C@]12Cc3cnn(-c4ccc(F)cc4)c3C=C1CC[C@@]2(O)CC(O)c1cc(Cl)ccn1 (single isomer, unassigned) [Example 8b]
[1]; [6]
  solubility: 119 µM (≈ 52.4 µg/mL)
[2]
  Inflammation Assay Glucose Effect: +
  Inflammation Assay Anti-inflammatory Effect: + (the anti-inflammatory activity was equal to or greater than 40% of the effect generated by the control compound)
[3]; [7]
  Transrepression U937 Cells GITAR Emax: 91.1%
[3]; [8]
  EC50: 23.7 nM

## C[C@]12Cc3cnn(-c4ccc(F)cc4)c3C=C1CC[C@@]2(O)CC(O)c1cc(Br)ccn1 (single isomer, unassigned) [Example 10b]
[1]; [6]
  solubility: 2 µM (≈ 0.969 µg/mL)
[3]; [7]
  Transrepression U937 Cells GITAR Emax: 64.3%
[3]; [8]
  EC50: 48 nM

## CO[C@@]1(CCc2ccccc2Cl)CCC2=Cc3c(cnn3-c3ccc(F)cc3)C[C@@]21C [Ex. 103 WO 04/075840 A2, reference compound]
[1]; Table 4, literature compounds
  solubility: poor
[2]; Table 4, literature compounds, anti-inflammatory effect
  AI*: + (the anti-inflammatory activity was equal to or greater than 40% of the effect generated by the control compound)
[2]; Table 4, literature compounds
  GL *: +
[3]; [4]
  EC50: 191 nM
[3]; [5]
  Emax: 93.3%

## COc1ccnc(C(O)C[C@]2(O)CCC3=Cc4c(cnn4-c4ccc(F)cc4)C[C@@]32C)c1 (stereo partly drawn) [Example 3, (4αS,5R)-1-(4-fluorophenyl)-5-[2-hydroxy-2-(4-methoxypyridin-2-yl)ethyl]-4α-methyl-1,4,4α,5,6,7-hexahydrocyclopenta[f]indazol-5-ol]
[1]; [10]
  solubility: 174 µM (≈ 75.8 µg/mL)
[2]
  Inflammation Assay Glucose Effect: +
  Inflammation Assay Anti-inflammatory Effect: + (the anti-inflammatory activity was equal to or greater than 40% of the effect generated by the control compound)
[3]; [8]
  EC50: 111 nM
[3]; [9]
  Emax: 81.3%

## C[C@]12Cc3cnn(-c4ccc(F)cc4)c3C=C1CC[C@@]2(O)CC(O)c1ccc(F)cn1 (single isomer, unassigned) [Example 7a]
[1]; [10]
  solubility: 64 µM (≈ 27.1 µg/mL)
[3]; [8]
  EC50: 441 nM
[3]; [9]
  Emax: 75.2%

## C[C@]12Cc3cnn(-c4ccc(F)cc4)c3C=C1CC[C@@]2(O)CC(O)c1ncccc1F (stereo partly drawn) [Example 4, (4αS,5R)-1-(4-fluorophenyl)-5-[2-(3-fluoropyridin-2-yl)-2-hydroxyethyl]-4α-methyl-1,4,4α,5,6,7-hexahydrocyclopenta[f]indazol-5-ol]
[1]; [10]
  solubility: < 1 µM
[3]; [8]
  EC50: 360 nM
[3]; [9]
  Emax: 70.6%

## C[C@]12Cc3cnn(-c4ccc(F)cc4)c3C=C1CC[C@@]2(O)CC(O)c1ccc(F)cn1 (single isomer, unassigned) [Example 7b]
[1]; [6]
  solubility: 35 µM (≈ 14.8 µg/mL)
[3]; [7]
  Transrepression U937 Cells GITAR Emax: 83.0%
[3]; [8]
  EC50: 248 nM

## C[C@]12Cc3cnn(-c4ccc(F)cc4)c3C=C1CC[C@@]2(O)CC(O)c1ccccn1 (single isomer, unassigned) [Example 2a]
[1]; [10]
  solubility: 105 µM (≈ 42.6 µg/mL)
[2]
  Inflammation Assay Glucose Effect: −
  Inflammation Assay Anti-inflammatory Effect: + (the anti-inflammatory activity was equal to or greater than 40% of the effect generated by the control compound)
[3]; [8]
  EC50: 237 nM
[3]; [9]
  Emax: 63.5%

## C[C@]12Cc3cnn(-c4ccc(F)cc4)c3C=C1CC[C@@]2(O)CC(O)c1cc(Cl)ccn1 (single isomer, unassigned) [Example 8a]
[1]; [6]
  solubility: <1 µM
[2]
  Inflammation Assay Glucose Effect: +
  Inflammation Assay Anti-inflammatory Effect: + (the anti-inflammatory activity was equal to or greater than 40% of the effect generated by the control compound)
[3]; [8]
  EC50: 96.7 nM
[3]; [9]
  Emax: 77.9%

## C[C@]12Cc3cnn(-c4ccc(F)cc4)c3C=C1CC[C@@]2(O)C#Cc1ccccc1 [Ex. 1 WO 04/075840 A2, reference compound]
[1]; Table 4, literature compounds
  solubility: poor
[2]; Table 4, literature compounds
  GL *: −
[3]; [4]
  EC50: 1660 nM
[3]; [5]
  Emax: 12.8%

## C[C@]12Cc3cnn(-c4ccc(F)cc4)c3C=C1CC[C@@]2(O)CC(O)c1ccc(C(F)(F)F)cn1 (stereo partly drawn) [Example 6, (4αS,5R)-1-(4-fluorophenyl)-5-{2-hydroxy-2-[5-(trifluoromethyl)pyridin-2-yl]ethyl}-4α-methyl-1,4,4α,5,6,7-hexahydrocyclopenta[f]indazol-5-ol]
[1]; [10]
  solubility: 4 µM (≈ 1.89 µg/mL)
[3]; [8]
  EC50: 344 nM
[3]; [9]
  Emax: 76.2%

## Cc1cccnc1C(O)C[C@]1(O)CCC2=Cc3c(cnn3-c3ccc(F)cc3)C[C@@]21C (single isomer, unassigned) [Example 1b]
[2]
  Inflammation Assay Glucose Effect: +
[3]; [7]
  Transrepression U937 Cells GITAR Emax: 58.3%
[3]; [8]
  EC50: 233 nM
